Where two headings read alike, the source gives them in different places.
What was measured:
[1] = test system: Glomerella lagenarium (Colletotrichum lagenarium); test: Glomerella lagenarium (Colletotrichum lagenarium) / liquid culture (anthracnose); type: cell-based; details: Colletotrichum orbiculare; 200 ppm, liquid culture, PDB, 24° C., 3-4 days after application; read-out: control of Glomerella lagenarium (inhibition of growth, photometric)
[2] = test system: Mycosphaerella arachidis (Cercospora arachidicola); test: Mycosphaerella arachidis (Cercospora arachidicola) / liquid culture (early leaf spot); type: cell-based; details: 200 ppm, liquid culture, PDB, 24° C., 4-5 days after application, read-out: control of Mycosphaerella arachidis (inhibition of growth, photometric)
[3] = test system: Mycosphaerella graminicola (Septoria tritici); test: Mycosphaerella graminicola (Septoria tritici) / liquid culture (Septoria blotch); type: cell-based; details: Zymoseptoria tritici; 200 ppm, liquid culture, PDB, 24° C., 4-5 days after application; read-out: control of Mycosphaerella graminicola (inhibition of growth, photometric)
Gaeumannomyces graminis = Gaeumannomyces graminis / liquid culture (take-all of cereals); type: cell-based; details: 200 ppm, liquid culture, PDB, 24° C., 4-5 days after application, read-out: control of Gaeumannomyces graminis (inhibition of growth, photometric)
[4] = test system: Monographella nivalis (Microdochium nivale); test: Monographella nivalis (Microdochium nivale) / liquid culture (foot rot cereals); type: cell-based; details: PDB, 24° C., 4-5 days after application, read-out: control of Monographella nivalis (inhibition of growth, photometric)
Pythium ultimum = Pythium ultimum / liquid culture (seedling damping off); type: cell-based; details: Globisporangium ultimum, potato dextrose broth, 24° C., 2-3 days after application, read-out: control of Pythium ultimum (inhibition of growth, photometric)
Pyrenophora teres = details: in Hordeum vulgare, foliar, read-out: control of Pyrenophora teres (disease control compared to untreated)
[5] = test system: Puccinia recondita f. sp. tritici; details: in Triticum aestivum, foliar, read-out: control of Puccinia recondita f. sp. tritici (percent disease control compared to untreated)
[6] = test system: Puccinia recondita f. sp. tritici; details: in Triticum aestivum, foliar, read-out: control of Puccinia recondita f. sp. tritici (percent disease control compared to untreated); remark: listed apart in the source
[7] = test system: Phaeosphaeria nodorum (Septoria nodorum); details: Parastagonospora nodorum, in Triticum aestivum, foliar, read-out: control of Phaeosphaeria nodorum (percent disease control compared to untreated)
[8] = test system: Botryotinia fuckeliana (Botrytis cinerea); test: Botryotinia fuckeliana (Botrytis cinerea) / liquid culture (gray mould); type: cell-based; details: Vogels broth, 24° C., 3-4 days after application, read-out: control of Botryotinia fuckeliana (inhibition of growth, photometric)
Text: Botryotinia Fuckeliana (Botrytis cinerea)/Liquid Culture (Gray Mould): Conidia of the fungus from cryogenic storage were directly mixed into nutrient broth (Vogels broth). […].45

[9] = test system: Thanatephorus cucumeris (Rhizoctonia solani); details: read-out: control of Thanatephorus cucumeris (inhibition of growth, photometric)

C/C(=N\OCCCc1cccc(-c2cc(Br)cc(C)n2)n1)c1cccc(C)n1 [P.18]
≥ 80%: inhibition at 200 ppm [1] | inhibition at 200 ppm [2] | inhibition at 200 ppm [3] | inhibition at 200 ppm (Gaeumannomyces graminis) | inhibition at 200 ppm [4] | inhibition at 200 ppm (Pythium ultimum) | pest or weed control at 200 ppm (Pyrenophora teres) | pest or weed control at 200 ppm [5] | pest or weed control at 200 ppm [6] | pest or weed control at 200 ppm [7]

C/C(=N\OCCCc1ccnc(-c2cccc(C)n2)n1)c1cccc(C)n1 [P.45, E-1-(6-methyl-2-pyridyl)-N-[3-[2-(6-methyl-2-pyridyl)pyrimidin-4-yl]propoxy]ethanimine]
≥ 80%: inhibition at 200 ppm [8] | inhibition at 200 ppm [1] | inhibition at 200 ppm [2] | inhibition at 200 ppm [3] | inhibition at 200 ppm [4] | inhibition at 200 ppm (Pythium ultimum) | pest or weed control at 200 ppm (Pyrenophora teres) | pest or weed control at 200 ppm [5] | pest or weed control at 200 ppm [6] | inhibition at 200 ppm [9] | pest or weed control at 200 ppm [7]

C/C(=N\OCCCc1cccc(-c2cc(OCc3ccccc3)cc(C)n2)n1)c1cccc(C)n1 [P.15]
≥ 80%: inhibition at 200 ppm [8] | inhibition at 200 ppm [1] | inhibition at 200 ppm [2] | inhibition at 200 ppm [3] | inhibition at 200 ppm (Gaeumannomyces graminis) | inhibition at 200 ppm [4] | pest or weed control at 200 ppm (Pyrenophora teres) | pest or weed control at 200 ppm [5] | pest or weed control at 200 ppm [6] | inhibition at 200 ppm [9] | pest or weed control at 200 ppm [7]

CCCOc1cc(C)nc(-c2cccc(CCCO/N=C(\C)c3cccc(C)n3)n2)c1 [P.26]
≥ 80%: inhibition at 200 ppm [8] | inhibition at 200 ppm [1] | inhibition at 200 ppm [2] | inhibition at 200 ppm [3] | inhibition at 200 ppm (Gaeumannomyces graminis) | inhibition at 200 ppm [4] | pest or weed control at 200 ppm (Pyrenophora teres) | pest or weed control at 200 ppm [5] | pest or weed control at 200 ppm [6] | inhibition at 200 ppm [9] | pest or weed control at 200 ppm [7]

C/C(=N\OCCCc1cccc(-c2cc(C)cc(C)n2)n1)c1cccc(C)n1 [P.19]
≥ 80%: inhibition at 200 ppm [2] | inhibition at 200 ppm [3] | inhibition at 200 ppm (Gaeumannomyces graminis) | inhibition at 200 ppm (Pythium ultimum) | pest or weed control at 200 ppm (Pyrenophora teres) | pest or weed control at 200 ppm [5] | pest or weed control at 200 ppm [6] | pest or weed control at 200 ppm [7]

C/C(=N\OCCCc1cccc(-c2ccccn2)n1)c1cccc(C)n1 [P.01]
≥ 80%: inhibition at 200 ppm [8] | inhibition at 200 ppm [1] | inhibition at 200 ppm [2] | inhibition at 200 ppm [4] | pest or weed control at 200 ppm (Pyrenophora teres) | pest or weed control at 200 ppm [5] | pest or weed control at 200 ppm [6] | inhibition at 200 ppm [9] | pest or weed control at 200 ppm [7]

C/C(=N\OCCCc1cccc(-c2nc(C)cc(C)n2)n1)c1cccc(C)n1 [P.05]
≥ 80%: inhibition at 200 ppm [1] | inhibition at 200 ppm [2] | inhibition at 200 ppm [3] | inhibition at 200 ppm (Gaeumannomyces graminis) | inhibition at 200 ppm (Pythium ultimum) | pest or weed control at 200 ppm (Pyrenophora teres) | pest or weed control at 200 ppm [5] | pest or weed control at 200 ppm [6] | inhibition at 200 ppm [9] | pest or weed control at 200 ppm [7]

C/C(=N\OCCCc1cccc(-c2ccnc(C3CC3)n2)n1)c1cccc(C)n1 [P.07]
≥ 80%: inhibition at 200 ppm [8] | inhibition at 200 ppm [1] | inhibition at 200 ppm [2] | inhibition at 200 ppm [3] | inhibition at 200 ppm (Gaeumannomyces graminis) | inhibition at 200 ppm [4] | pest or weed control at 200 ppm (Pyrenophora teres) | inhibition at 200 ppm [9] | pest or weed control at 200 ppm [7]

CCc1cc(SC)c(C)c(-c2cccc(CCCO/N=C(\C)c3cccc(C)n3)n2)n1 [P.40]
≥ 80%: inhibition at 200 ppm [8] | inhibition at 200 ppm [1] | inhibition at 200 ppm [2] | inhibition at 200 ppm [3] | inhibition at 200 ppm (Gaeumannomyces graminis) | inhibition at 200 ppm [4] | pest or weed control at 200 ppm (Pyrenophora teres) | pest or weed control at 200 ppm [5] | pest or weed control at 200 ppm [6] | inhibition at 200 ppm [9] | pest or weed control at 200 ppm [7]

C=CCOc1cc(C)nc(-c2cccc(CCCO/N=C(\C)c3cccc(C)n3)n2)c1 [P.25]
≥ 80%: inhibition at 200 ppm [8] | inhibition at 200 ppm [1] | inhibition at 200 ppm [2] | inhibition at 200 ppm [3] | inhibition at 200 ppm (Gaeumannomyces graminis) | inhibition at 200 ppm [4] | inhibition at 200 ppm (Pythium ultimum) | pest or weed control at 200 ppm (Pyrenophora teres) | pest or weed control at 200 ppm [5] | pest or weed control at 200 ppm [6] | inhibition at 200 ppm [9] | pest or weed control at 200 ppm [7]

CCCOc1cc(C)nc(-c2cccc(CCCO/N=C(\C)c3cc(C)cc(C)n3)n2)c1 [P.31]
≥ 80%: inhibition at 200 ppm [8] | inhibition at 200 ppm [1] | inhibition at 200 ppm [2] | inhibition at 200 ppm [3] | inhibition at 200 ppm (Gaeumannomyces graminis) | inhibition at 200 ppm [4] | pest or weed control at 200 ppm (Pyrenophora teres) | pest or weed control at 200 ppm [5] | pest or weed control at 200 ppm [6] | inhibition at 200 ppm [9] | pest or weed control at 200 ppm [7]

COc1cc(C)nc(-c2ccc(OC)c(CCCO/N=C(\C)c3cccc(C)n3)n2)c1 [P.43]
≥ 80%: inhibition at 200 ppm [8] | inhibition at 200 ppm [1] | inhibition at 200 ppm [2] | inhibition at 200 ppm [3] | inhibition at 200 ppm (Gaeumannomyces graminis) | inhibition at 200 ppm [4] | inhibition at 200 ppm (Pythium ultimum) | pest or weed control at 200 ppm (Pyrenophora teres) | pest or weed control at 200 ppm [5] | pest or weed control at 200 ppm [6] | inhibition at 200 ppm [9] | pest or weed control at 200 ppm [7]

C#CCOc1cc(C)nc(-c2cccc(CCCO/N=C(\C)c3cccc(C)n3)n2)c1 [P.24]
≥ 80%: inhibition at 200 ppm [8] | inhibition at 200 ppm [2] | inhibition at 200 ppm [3] | inhibition at 200 ppm (Gaeumannomyces graminis) | inhibition at 200 ppm [4] | pest or weed control at 200 ppm (Pyrenophora teres) | pest or weed control at 200 ppm [5] | pest or weed control at 200 ppm [6] | inhibition at 200 ppm [9] | pest or weed control at 200 ppm [7]

C=CCOc1cc(C)nc(-c2cccc(CCCO/N=C(\C)c3cc(C)cc(C)n3)n2)c1 [P.30]
≥ 80%: inhibition at 200 ppm [8] | inhibition at 200 ppm [1] | inhibition at 200 ppm [2] | inhibition at 200 ppm [3] | inhibition at 200 ppm (Gaeumannomyces graminis) | inhibition at 200 ppm [4] | pest or weed control at 200 ppm (Pyrenophora teres) | pest or weed control at 200 ppm [5] | pest or weed control at 200 ppm [6] | inhibition at 200 ppm [9] | pest or weed control at 200 ppm [7]

Source: patent publication US20140045873A1, “NOVEL MICROBIOCIDES” (SYNGENTA PARTICIPATIONS AG, priority 2010, published 2014)
